Laboratory results as given in ChEMBL document CHEMBL5500321, “Synthesis and clinical application of small-molecule drugs approved to treat prostatic cancer” (Eur J Med Chem, 2023).

Key:
[1] = Antiproliferative activity against human LNCaP/AR cells assessed as reduction in cell growth measured after 3 days by CellTiter-Glo assay; type: functional, cell-based; details: 72 h
4T1 = assay: Antitumor activity against mouse 4T1 cells xenografted in BALB/c mouse model assessed as reduction in tumor growth at 100 microg/ml measured after 20 days relative to control; type: functional; design: scale not given: the % may be the effect or the level left; details: dose 100 µg/ml; time 20 day
Tubulin = assay: Inhibition of microtubule (unknown origin) polymerization; type: protein-complex assay, Homo sapiens
DU-145 = assay: Antimitotic activity against human DU-145 cells assessed as reduction in cell proliferation incubated for 72 hrs by alamar blue based fluorescence spectrophotometric analysis; type: functional; details: DU-145, 72 h
T47D = assay: Antiproliferative activity against human T47D cells assessed as reduction in cell growth incubated for 48 hrs by MTT assay; type: functional, cell-based
ZR-75-1 = assay: Antiproliferative activity against human ZR-75-1 cells assessed as reduction in cell growth measured after 5 days by Celltiter-Glo assay; type: functional, cell-based; details: ZR-75-1, 120 h

With `CC(O)(CS(=O)(=O)c1ccc(F)cc1)C(=O)Nc1ccc(C#N)c(C(F)(F)F)c1` (stereo unspecified) [BICALUTAMIDE] as the compound, how does the IC50 [1] read?
Its IC50 is 0.16 µM.

With `CO[C@H]1C(=O)[C@]2(C)[C@@H](OC)C[C@H]3OC[C@@]3(OC(C)=O)[C@H]2[C@H](OC(=O)c2ccccc2)[C@]2(O)C[C@H](OC(=O)[C@H](O)[C@@H](NC(=O)OC(C)(C)C)c3ccccc3)C(C)=C1C2(C)C` [CABAZITAXEL] as the compound, how does the Activity (4T1) read?
Its Activity is 56.2%.

With `CC(=O)O[C@@]12CO[C@@H]1C[C@H](O)[C@@]1(C)C(=O)[C@H](O)C3=C(C)[C@@H](OC(=O)[C@H](O)[C@@H](NC(=O)OC(C)(C)C)c4ccccc4)C[C@@](O)([C@@H](OC(=O)c4ccccc4)[C@H]21)C3(C)C` [DOCETAXEL ANHYDROUS] as the compound, how does the IC50 (Tubulin) read?
The IC50 was 0.2 µM.

With `C[C@]12CC[C@@H]3c4ccc(OC(=O)N(CCCl)CCCl)cc4CC[C@H]3[C@@H]1CC[C@@H]2OP(=O)(O)O` [ESTRAMUSTINE PHOSPHATE SODIUM] as the compound, how does the IC50 (DU-145) read?
Its IC50 is 16 µM.

What does the source list for `CC1(C)NC(=O)N(c2ccc([N+](=O)[O-])c(C(F)(F)F)c2)C1=O` [NILUTAMIDE]?
IC50 (T47D): 0.087 µM; IC50 (ZR-75-1): 0.075 µM
